4 compounds from US4183920A, “4-N-Acyl, 2'-N-acyl and 4,2'-N,N'-diacylfortimicin E derivatives” (Abbott Laboratories, priority 1977, dated 1980) can be followed below.

Counter-ions that a name gives are not always drawn. Like-named read-outs stand apart in the source and are kept apart here.

What all share (experiment): In vitro antibiotic activity, 2-fold agar dilution method
Type in all cases: cell-based

The test system of assay [1] is Sal. typhimurium Ed #9. As to conditions: Salmonella enterica. The method, then:
(§1) The in vitro antibiotic activity is determined by a 2-fold agar dilution method using 10 ml. per petri plate of Mueller-Hinton agar. The agar is inoculated with one loopful (0.001 ml. loop) of a 1:10 dilution of a 24 hour broth culture of the indicated test organism and incubated at 37° C. for 24 hours. Minimum inhibitory concentrations (MIC) are expressed as mcg/ml.

Assay [2] deals with E. coli R3. As to conditions: Escherichia coli. How it is done: as §1
Assay [3] has as its system Staph aureus Smith. Conditions: Staphylococcus aureus. The method, then: as §1
Assay [4] relates to Kleb. pneumoniae KY 4262. As to conditions: Klebsiella pneumoniae. How it is done:
as §1

The test system of assay [5] is Proteus vulgaris JJ. How it is done: as §1
The test system of assay [6] is Pseudo aeruginosa. How it is done:
as §1

In assay [7] the test system is Bacillus subtilus U. Ill. 10707. The method, then: as §1
Assay [8] relates to Strep. faecalis 10541. How it is done:
as §1

Assay [9] relates to E. coli Juhl. Conditions: Escherichia coli. How it is done:
as §1

Assay [10] relates to Shigella sonnei 9290. As to conditions: Mueller-Hinton agar, 37° C., 24 hours. How it is done:
as §1

The mark [11] stands for this setting: Sal. typhimurium Ed #9, Mueller-Hinton agar, 37° C., 24 hours, read-out: MIC.
[12] abbreviates: E. coli R3, Mueller-Hinton agar, 37° C., 24 hours, read-out: MIC.
[13] abbreviates: Staph aureus Smith, Mueller-Hinton agar, 37° C., 24 hours, read-out: MIC.
[14] abbreviates: KY4262, Kleb. pneumoniae KY 4262, Mueller-Hinton agar, 37° C., 24 hours, read-out: MIC.
[15] abbreviates: Proteus vulgaris JJ, Mueller-Hinton agar, 37° C., 24 hours, read-out: MIC.
The mark [16] stands for this setting: Pseudo aeruginosa, Mueller-Hinton agar, 37° C., 24 hours, read-out: MIC.
Setting [17] is: Bacillus subtilus U. Ill. 10707, Mueller-Hinton agar, 37° C., 24 hours, read-out: MIC.
[18] abbreviates: Enterococcus faecalis, Strep. faecalis 10541, Mueller-Hinton agar, 37° C., 24 hours, read-out: MIC.
[19] abbreviates: E. coli Juhl, Mueller-Hinton agar, 37° C., 24 hours, read-out: MIC.

Turning to `COC1C(O)C(N)C(OC2OC(C(C)N)CCC2N)C(O)C1N(C)C(=O)[C@@H](O)CCN` (stereo partly drawn) [4-N-L-(2-hydroxy-4-amino)butyrylfortimicin E tetrahydrochloride salt], the MIC in [1] (setting [11]) is 100 µg/mL; in assay [2] (setting [12]), more than 100 µg/mL; in assay [3] (setting [13]) it was 25 µg/mL; in [4] (setting [14]), 50 µg/mL; in [5] (setting [15]) it was more than 100 µg/mL; in assay [6] (setting [16]) it was more than 100 µg/mL. The MIC in [7] (setting [17]) is 12.5 µg/mL; in assay [8] (setting [18]), more than 100 µg/mL; in assay [9] (setting [19]), 50 µg/mL; in assay [10], more than 100 µg/mL.
For `COC1C(O)C(N)C(OC2OC(C(C)N)CCC2N)C(O)C1N(C)C(=O)CN` (stereo not shown) [4-N-glycylfortimicin E tetrahydrochloride salt], the MIC in assay [1] (TYPHIMURIUM, 24 h) was 25 µg/mL; in assay [2] (R3, 24 h), more than 100 µg/mL; in assay [3] (24 h), 6.25 µg/mL; in assay [4] (KY4262, 24 h) it was 25 µg/mL; in assay [5] (Proteus vulgaris, 24 h), more than 100 µg/mL; in assay [6] (24 h), more than 100 µg/mL. In addition, the MIC in [7] (Bacillus, U.ILL.10707, 24 h) was 12.5 µg/mL; in assay [8] (Enterococcus faecalis, 10541, 24 h) it was more than 100 µg/mL; in assay [9] (24 h), 6.25 µg/mL; in assay [10], 25 µg/mL.
As to `CNCC(=O)N(C)C1C(O)C(OC2OC(C(C)N)CCC2N)C(N)C(O)C1OC` (stereo not shown) [4-N-sarcosylfortimicin E tetrahydrochloride salt], the MIC was 50 µg/mL in assay [1] (setting [11]); more than 100 µg/mL in [2] (setting [12]); 25 µg/mL in [3] (setting [13]); 100 µg/mL in [4] (setting [14]); more than 100 µg/mL in [5] (setting [15]); more than 100 µg/mL in assay [6] (setting [16]). Also, the MIC is 6.25 µg/mL in assay [7] (setting [17]), more than 100 µg/mL in [8] (setting [18]), 50 µg/mL in [9] (setting [19]) and 100 µg/mL in [10].
For `COC1C(O)C(N)C(OC2OC(C(C)N)CCC2N)C(O)C1N(C)C(=O)CCN` (stereo not drawn) [4-N-β-alanylfortimicin E tetrahydrochloride salt], the MIC in assay [1] (setting [11]) is 25 µg/mL; in [2] (setting [12]), more than 100 µg/mL; in assay [3] (setting [13]), 12.5 µg/mL; in [4] (setting [14]), 25 µg/mL; in [5] (setting [15]), more than 100 µg/mL; in [6] (setting [16]), more than 100 µg/mL. Also, the MIC is 12.5 µg/mL in assay [7] (setting [17]), more than 100 µg/mL in [8] (setting [18]), 25 µg/mL in assay [9] (setting [19]) and more than 100 µg/mL in [10].
